The values that follow come from ChEMBL document CHEMBL5241101, “Plant isoquinoline alkaloids: Advances in the chemistry and biology of berberine” (Eur J Med Chem, 2021).

Broadly, the IC50 is the concentration that inhibits the measured activity by half. Broadly, the bioavailability is the share of a dose that reaches the circulation, judged against a reference dose that is usually intravenous. High values mean good availability, low ones poor availability. In general, NOAEL refers to the highest tested level that showed no adverse finding. As usually defined, the LOAEL is the lowest tested level that showed an adverse finding.

Series [1] deals with A549. The experiment in a line: Cytotoxicity against human A549 cells assessed as cell growth inhibition incubated for 72 hrs by MTT assay. Format: functional, cell-based. The following applies: A549, 72 h. For orientation: Formazan colour is commonly taken as a measure of viable cells.
The subject of another series is K562. The series can be described thus: Cytotoxicity against human K562 cells assessed as cell growth inhibition incubated for 72 hrs by MTT assay. In kind it is functional, cell-based. The following applies: K562, 72 h.
Series [2] deals with Plasmodium falciparum. The experiment in a line: Antimalarial activity against chloroquine sensitive Plasmodium falciparum NF54 assessed as inhibition of parasite growth incubated for 72 hrs by [3H]-hypoxanthine incorporation assay based liquid scintillation counter. Format: functional, organism-based.
The subject of series [3] is HL-60. The experiment in a line: Cytotoxicity against human HL-60 cells assessed as cell growth inhibition incubated for 48 hrs by WST-1 assay. In kind it is functional, cell-based. The following applies: HL-60, 48 h.
Series [4] relates to Jurkat. The series can be described thus: Cytotoxicity against human Jurkat cells assessed as cell growth inhibition incubated for 48 hrs by WST-1 assay. Format: functional, cell-based.
Series [5] relates to A549. The experiment in a line: Cytotoxicity against human A549 cells assessed as cell growth inhibition incubated for 48 hrs by WST-1 assay. In kind it is functional, cell-based. The following applies: A549, 48 h.
Another series deals with COLO 201. The series can be described thus: Cytotoxicity against human COLO201 cells assessed as cell growth inhibition incubated for 48 hrs by WST-1 assay. Format: functional, cell-based. The following applies: COLO 201, 48 h.
For the next series, the system named is HT-29. The experiment in a line: Cytotoxicity against human HT-29 cells assessed as cell growth inhibition incubated for 48 hrs by WST-1 assay. The following applies: HT-29, 48 h. In kind it is functional, cell-based.
The test system of a further series is AGS. The experiment in a line: Cytotoxicity against human AGS cells assessed as cell growth inhibition incubated for 48 hrs by WST-1 assay. In kind it is functional, cell-based.
Another series has as its system A2780. The series can be described thus: Cytotoxicity against human A2780 cells assessed as cell growth inhibition incubated for 48 hrs by WST-1 assay. In kind it is functional, cell-based. The following applies: A2780, 48 h.
The test system of another series is BT-549. The series can be described thus: Cytotoxicity against human BT-549 cells assessed as cell growth inhibition incubated for 48 hrs by WST-1 assay. Format: functional, cell-based. The following applies: BT-549, 48 h.
The subject of a further series is MCF7. The experiment in a line: Cytotoxicity against human MCF7 cells assessed as cell growth inhibition incubated for 48 hrs by WST-1 assay. In kind it is functional, cell-based. The following applies: MCF7, 48 h.
Series [6] deals with Plasmodium falciparum. The experiment in a line: Antimalarial activity against chloroquine resistant Plasmodium falciparum K1 assessed as inhibition of parasite growth incubated for 72 hrs by [3H]-hypoxanthine incorporation assay based liquid scintillation counter. Format: functional, organism-based.
In another series the test system is Caco-2. The series can be described thus: Antiproliferative activity against human Caco-2 cells incubated for 96 hrs by MTT assay. The following applies: Caco-2, 96 h. Format: functional, cell-based.
For series [7], the system named is HL-60. The series can be described thus: Antiproliferative activity against human HL-60 cells incubated for 96 hrs by MTT assay. In kind it is functional, cell-based. The following applies: HL-60, 96 h.
For series [8], the system named is Jurkat. The experiment in a line: Cytotoxicity against human Jurkat cells assessed as cell growth inhibition incubated for 48 hrs by XTT assay. In kind it is functional, cell-based.
In a further series the test system is MOLT-4. The experiment in a line: Cytotoxicity against human MOLT-4 cells assessed as cell growth inhibition incubated for 48 hrs by XTT assay. Format: functional, cell-based. The following applies: MOLT-4, 48 h.
For series [9], the system named is HL-60. The series can be described thus: Cytotoxicity against human HL-60 cells assessed as cell growth inhibition incubated for 48 hrs by XTT assay. Format: functional, cell-based. The following applies: HL-60, 48 h.
Series [10] can be described thus: Oral bioavailability in Wistar rat at 100 mg/kg by UPLC-MS/MS analysis. Format: ADME, organism-based. The following applies: in vivo.
Series [11] concerns HaCaT. The experiment in a line: Cytotoxicity against human HaCaT cells assessed as decrease in cell viability at 50 uM incubated for 1 hr in presence of UV radiation by CellTiter-96 assay. Format: toxicity, cell-based.
Series [12] concerns HaCaT. The experiment in a line: Induction of DNA damage in human HaCaT cells assessed as fold change at 50 uM in presence of UV radiation by comet assay. In kind it is toxicity, cell-based.
The nature of series [13]: Toxicity in Sprague-Dawley rat assessed as NOAEL by po administrated gestational day upto 20 days. Format: organism-based. The following applies: in vivo, time < 20 day.
The nature of series [14]: Toxicity in Sprague-Dawley rat assessed as LOAEL by po administrated gestational day upto 20 days. In kind it is organism-based. The following applies: in vivo, 480 h, time < 20 day.

For the compound `O[C@H]1/C=C\[C@H]2C[C@]34CN5CCCC/C=C\CC[C@](O)(C=C(c6nccc7c6[nH]c6ccccc67)[C@@H]3CC5)[C@@H]4N2CCC1`, the IC50 in the series with A549 [1] amounted to 5.8 µM; in the series with K562, 5.2 µM.
Regarding `O[C@]12C=C(c3nccc4c3[nH]c3ccccc34)[C@@H]3CCN(CCCC/C=C\CC1)C[C@@]31C[C@@H]3C=C[C@H]4CCC[N@+]43[C@H]12`, the results for the IC50 in the series with A549 [1] and with K562 were 5.8 µM and 5.2 µM, respectively.
In the case of `COc1cc(O)c(-c2cc(-c3cc(-c4c(O)cc5c(c4OC)[C@H](C)N[C@H](C)C5)c4cc(C)cc(OC)c4c3O)c(O)c3c(OC)cc(C)cc23)c2c1[C@H](C)N[C@H](C)C2`, the IC50 in the series on Plasmodium falciparum [2] was 0.034 µM.
In the case of `CO[C@@H]1C=C[C@@]23c4cc5c(cc4[C@H](O)N(C[C@@H]2O)[C@H]3C1)OCO5`, the IC50 in the series with HL-60 [3], in the series on Jurkat [4], in the series with A549 [5], in the series on COLO 201, with HT-29 and in the series on AGS was 0.3 µM in each case. In addition, the IC50 in the series with A2780, in the series with BT-549 and in the series on MCF7 was 0.3 µM each time.
With `O[C@]12C=C(c3nccc4c3[nH]c3ccccc34)[C@@H]3CCN(CCCC/C=C\CC1)C[C@@]31C[C@@]34CC[C@@H](CCCN3[C@H]12)O4`, the IC50 in the series with A549 [1] was determined as 5.8 µM; with K562, 5.2 µM.
For `COc1cc(O)c(-c2cc(-c3cc(-c4c(O)cc5c(c4OC)[C@@H](C)N[C@H](C)C5)c4cc(C)cc(OC)c4c3O)c(O)c3c(OC)cc(C)cc23)c2c1[C@H](C)N[C@H](C)C2`, the IC50 in the series with Plasmodium falciparum [2] stood at 0.418 µM; in the series with Plasmodium falciparum [6] it was 0.452 µM.
Regarding `COC(=O)c1ccc(OC)c(OC)c1NC(=O)c1cc(C/C=C(\C)c2c3[n+](cc4c(OC)c(OC)ccc24)CCc2cc4c(cc2-3)OCO4)c2c(c1)OCO2`, the IC50 with Caco-2 amounted to 9.24 µM; in the series with HL-60 [7], 10.2 µM.
On to `COc1ccc2c(c1OC)CN(C)[C@@H]1c3cc4c(cc3C[C@H](O)[C@H]21)OCO4`, for which the IC50 with Jurkat [8], in the series with MOLT-4 and with HL-60 [9] was 4.8 µM throughout.
On to `[O-][N+]1=C([C@H]2[C@@H]3CCN4CCCC/C=C\CC[C@@]5(O[C@@H]25)[C@@H]2NCCCC/C=C\CC[C@@]23C4)c2[nH]c3ccccc3c2CC1`, for which the IC50 with A549 [1] was 5.8 µM; with K562, 5.2 µM.
For `[O-][n+]1ccc2c([nH]c3ccccc32)c1[C@H]1[C@@H]2CCN3CCCC/C=C\CC[C@@]4(O[C@@H]14)[C@@H]1NCCCC/C=C\CC[C@@]12C3` the same measures were 5.8 µM and 5.2 µM.
Take `O[C@H]1[C@@H](c2nccc3c2[nH]c2ccccc23)[C@@H]2CCN3CCCC/C=C\CC[C@@]1(O)[C@@H]1NCCCC/C=C\CC[C@]21C3`: the IC50 with A549 [1] was 5.8 µM; in the series on K562, 5.2 µM.
For `COc1cc(O)c(-c2cc(-c3cc(-c4c(O)cc5c(c4OC)[C@H](C)N[C@H](C)C5)c4cc(C)cc(OC)c4c3O)c(O)c3c(OC)cc(C)cc23)c2c1[C@@H](C)N[C@H](C)C2`, the IC50 in the series on Plasmodium falciparum [2] turned out to be 0.21 µM; with Plasmodium falciparum [6], 0.138 µM.
`O[C@@H]1CCCN2[C@@H](CC1)C[C@]13CN4CCCC/C=C\CC[C@](O)(C=C(c5nccc6c5[nH]c5ccccc56)[C@@H]1CC4)[C@H]23` [32,33-DIHYDRO-31-HYDROXYMANZAMINE A]: the results for the IC50 in the series with A549 [1] and in the series on K562 were 5.8 µM and 5.2 µM, respectively.
As for `CO[C@@H]1C=C[C@@]23c4cc5c(cc4CN(C[C@@H]2O)[C@H]3C1)OCO5` [(+)-HAEMANTHAMINE], the IC50 with HL-60 [3], in the series with Jurkat [4], with A549 [5], in the series on COLO 201, with HT-29 and in the series on AGS was 0.3 µM each time. The IC50 in the series on A2780, in the series with BT-549 and in the series with MCF7 was 0.3 µM each time.
`COc1ccc2cc3[n+](cc2c1OC)CCc1cc2c(cc1-3)OCO2` [BERBERINE] came in with a bioavailability in series [10] of 0.36%. Moreover, in the series with HaCaT [11], the Activity was found to be 80%. Also, the “fold change (FC)” value in the series on HaCaT [12] came to 3. In addition, the NOAEL at 480 h in series [13] is 420 mg/kg. Besides, the LOAEL in [14] was found to be 1313 mg/kg.
Regarding `CN1Cc2c(ccc3c2OCO3)[C@@H]2[C@H]1c1cc3c(cc1C[C@@H]2O)OCO3` [CHELIDONINE], the IC50 with Jurkat [8], in the series with MOLT-4 and with HL-60 [9] was 2.2 µM throughout.
On to `O[C@H]1[C@H]2c3cc4c(cc3CN3CCC(=C[C@@H]1O)[C@H]23)OCO4` [LYCORINE], for which the IC50 in the series on HL-60 [3], in the series with Jurkat [4], in the series on A549 [5], in the series on COLO 201, in the series on HT-29 and with AGS was 0.3 µM throughout. In addition, the IC50 in the series with A2780, with BT-549 and in the series on MCF7 was 0.3 µM throughout.
`O[C@]12C=C(c3nccc4c3[nH]c3ccccc34)[C@@H]3CCN(CCCC/C=C\CC1)C[C@@]31C[C@@H]3/C=C\CCCCN3[C@H]12` [MANZAMINE A]: the IC50 in the series with A549 [1] was 5.8 µM; in the series on K562, 5.2 µM.
For `C1=C\CC[C@]23CN4CCCC/C=C\CC[C@@]5(O[C@H]5[C@@H](c5nccc6c5[nH]c5ccccc56)[C@@H]2CC4)[C@@H]3NCCCC/1` [MANZAMINE B] the same measures were 5.8 µM and 5.2 µM.
